Tests used:
[1] = tested on: progesterone receptor (T47D cells); test: Antagonist assay in T47D (human breast cancer) cells (Tables 1 and 2); type: cell-based; conditions: for Efficacy (% maximal response relative to RU-486), T47D cells: antagonist activity; for IC50: concentration required to reduce the maximal response by 50%, read-out: Potency (IC50), T47D cells
Description: The functional activities of the cyclocymopol analogues in the human breast cell line, T47D, were also investigated. T47D cells have proven to be a particularly useful model to investigate the molecular actions of sex steroids because they contain endogenous functional receptors for, and respond to, progestins, and their respective antagonists. […] In T47D cells, progestins induce de novo synthesis of a plasma-associated alkaline phosphatase, which has been reported to be similar, if not identical, to the alkaline phosphatase present in the normal breast and human milk. These tests were conducted according to the following illustrative example.
The assay was also run using T47D (human breast cancer) cells.

[2] = tested on: human progesterone receptor altered at the Tau-1 location; test: Co-transfection assay in CV-1 cells, progesterone receptor altered at Tau-1, antagonist activity; type: cell-based; conditions: for Efficacy (% maximal response relative to RU-486), CV-1 cells: antagonist activity; for IC50: concentration required to reduce the maximal response by 50%, read-out: Potency (IC50), CV-1 cells
Description: This assay is described in further detail in U.S. Pat. Nos. 4,981,784 and 5,071,773, which are incorporated herein by reference. The co-transfection assay provides a method for identifying functional ligands (either agonists which mimic, or antagonists which inhibit, the effect of hormones) for ligand-responsive receptor proteins.
The co-transfection assay provides a mechanism to evaluate ability of a compound to function as an agonist or antagonist of the activity modulated by an intracellular receptor. The co-transfection assay mimics an in vivo system in the laboratory. In the co-transfection assay, a cloned gene for an intracellular receptor is introduced by transfection (a procedure to induce cells to take up foreign genes) into a background cell substantially devoid of endogenous intracellular receptors. This introduced gene directs the recipient cells to make the intracellular receptor protein. A second gene is also introduced (co-transfected) into the same cells in conjunction with the intracellular receptor gene. This second gene functions as a reporter for the transcription-modulating activity of the target intracellular receptor. The reporter acts as a surrogate for the products normally expressed by a gene under control of the target receptor and its natural hormone.
A preferred reporter gene is one which expresses the firefly enzyme luciferase. The co-transfection assay can detect small molecule agonists or antagonists of target intracellular receptors. Exposing the cells to an agonist ligand increases reporter activity in the transfected cells that can be conveniently measured, reflecting ligand-dependent, intracellular receptor-mediated increases in reporter transcription. To detect antagonists, the co-transfection assay is carried out in the presence of a constant concentration of an agonist known to induce a defined reporter signal. Increasing concentrations of a test antagonist will decrease the reporter signal. The co-transfection assay is therefore useful to detect both agonists and antagonists of specific intracellular receptors. It determines not only whether a compound interacts with a particular intracellular receptor, but also whether this interaction mimics (agonizes) or blocks (antagonizes) the effects of the natural regulatory molecules on target gene expression.
Co-transfected cells are exposed to a medium to which is added the potential ligand that is being evaluated. If the candidate ligand diffuses into the cell and binds to the receptor and the resulting complex functions as an agonist, it binds to the co-transfected reporter gene and initiates transcription. When that gene is one that expresses, for example, luciferase, luciferase is produced which catalyzes a light-emitting reaction with its substrate luciferin. Thus, after cell lysis and the introduction of luciferin, the amount of light produced relative to the concentration of candidate ligand used in the assay provides a measure of the potency and efficacy of the compound tested. Antagonist activity is evaluated by adding the candidate ligand and a known agonist to the co-transfected cells.
The receptor cDNA was introduced in a mammalian expression vector under the control of the Rous Sarcoma virus LTR. […] A reporter vector was also transfected, containing a firefly luciferase gene under the control of the hormone-responsive promoter. […] The level of luciferase activity was then measured in cell extracts. Light emission is directly proportional to the effectiveness of the hormone-receptor complex in activating gene expression.
A total of three replicates per concentration point were tested for each compound, and the EC50 was calculated for each positive response. Both agonist and antagonist activity for each test compound was determined in parallel. […]

[3] = target: T1, human progesterone receptor (Homo sapiens, UniProt P06401); test: Progesterone receptor binding (displacement of 3H-progesterone, whole cell extract of transfected CV-1 cells); set-up: expressed in transfected cells; host or cells: CV-1 cells (calcium phosphate transfection), whole cell extract
T1 sequence (P06401 1-933): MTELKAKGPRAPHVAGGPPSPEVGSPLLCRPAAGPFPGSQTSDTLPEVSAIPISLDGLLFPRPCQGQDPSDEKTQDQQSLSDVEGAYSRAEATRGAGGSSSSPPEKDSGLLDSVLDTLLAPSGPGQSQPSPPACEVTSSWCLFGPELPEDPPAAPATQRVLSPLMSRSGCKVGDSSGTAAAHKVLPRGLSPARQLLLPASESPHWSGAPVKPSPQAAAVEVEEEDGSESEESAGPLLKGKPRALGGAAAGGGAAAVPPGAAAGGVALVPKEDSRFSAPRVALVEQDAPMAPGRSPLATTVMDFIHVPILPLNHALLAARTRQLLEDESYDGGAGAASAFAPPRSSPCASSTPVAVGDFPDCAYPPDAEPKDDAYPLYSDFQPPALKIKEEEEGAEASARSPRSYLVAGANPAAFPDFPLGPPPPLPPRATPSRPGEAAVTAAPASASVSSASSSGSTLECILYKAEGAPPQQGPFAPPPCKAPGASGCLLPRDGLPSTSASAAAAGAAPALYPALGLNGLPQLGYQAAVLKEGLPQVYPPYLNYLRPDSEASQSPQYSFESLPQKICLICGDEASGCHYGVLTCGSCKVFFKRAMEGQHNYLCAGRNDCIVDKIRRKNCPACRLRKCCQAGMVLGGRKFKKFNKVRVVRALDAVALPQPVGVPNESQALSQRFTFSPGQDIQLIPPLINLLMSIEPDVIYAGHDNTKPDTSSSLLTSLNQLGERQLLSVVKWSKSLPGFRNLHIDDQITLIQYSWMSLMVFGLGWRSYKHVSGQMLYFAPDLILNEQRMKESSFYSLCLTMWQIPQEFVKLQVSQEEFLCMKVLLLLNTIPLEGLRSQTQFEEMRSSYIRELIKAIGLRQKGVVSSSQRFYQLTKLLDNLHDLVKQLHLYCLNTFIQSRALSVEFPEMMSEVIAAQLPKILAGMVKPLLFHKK
Description: These tests were conducted according to the following illustrative example.
CO2 for 40 hours prior to harvest.
After incubation, cells were harvested and washed in phosphate buffered saline. Whole cell receptor extract was prepared by homogenizing the harvested cells in Tris-HCl buffer, pH=7.4, containing 30% glycerol, 1 mM EDTA, 12 mM monothioglycerol, 1 mM PMSF, and 0.5M potassium chloride. The homogenate was incubated at 4° C. for 60 min with resuspension every 10 min. The suspension was centrifuged (105,000×g, 60 min) and the supernatant was collected and flash frozen in liquid nitrogen and stored frozen at -70° C.
To a […] final volume incubation mixture, […] of 7.5% (w/v) dextran-coated charcoal suspension in gelatin phosphate buffer was added. The mixture was vortexed and incubated at 4° C. for 10 min and then centrifuged at 3000 rpm for 10 min. The amount of bound tritiated hormone was determined by liquid scintillation spectrophotometry of an aliquot of the supernatant. […]

Compound	Efficacy (% maximal response relative to RU-486), T47D cells [1] [%]	IC50 [1] [nM]	Efficacy (% maximal response relative to RU-486), CV-1 cells [2] [%]	IC50 [2] [nM]	Kd [3] [nM]
C=C1CCCC(C)(C)C1Cc1cc(OC)c(Br)cc1OC(C)=O (racemic) [A, 1-Methylidene-2-(2'-acetoxy-4'-bromo-5'-methoxyphenyl)methyl-3,3-dimethylcyclohexane]	70	200	55	225	100
C=C1C[C@H](C)CC(C)(C)[C@@H]1Cc1cc(OC)c(Br)cc1O (relative stereo) [BB, cis-1-Methylidene-2-(2'-hydroxy-4'-bromo-5'-methoxyphenyl)methyl-3,3,5-trimethyleyclohexane]	41	7190	38	5140	28
C=C1C[C@@](C)(CO)CC(C)(C)[C@@H]1Cc1cc(OC)c(Br)cc1O (relative stereo) [HH, trans-1-Methylidene-2-(2'-hydroxy-4'-bromo-5'-methoxyphenyl)methyl-3,3,5-trimethyl-5-(hydroxymethyl)cyclohexane]	81	1100	85	3000	2310
C=C1C=C(C)[C@@H](CCO)C(C)(C)[C@@H]1Cc1cc(OC)c(Br)cc1O (relative stereo) [JJ, trans-1-Methylidene-4-(2-hydroxy)ethyl-6-(2'-hydroxy-4'-bromo-5'-methoxyphenyl)methyl-3,5,5-trimethylcyclohex-2-ene]	74	3600	48	30	625
C=C1C=C[C@@H](C)C(C)(C)[C@@H]1Cc1cc(OC)c(Br)cc1O (relative stereo) [KK, trans-1-Methylidene-6-(2'-hydroxy-4'-bromo-5'-methoxyphenyl)methyl-4,5,5-trimethylcyclohex-2-ene]	76	1300	75	1600	346
C=C1CC[C@@H](C)C(C)(C)[C@@H]1Cc1cc(OC)c(Br)cc1O (relative stereo) [LL, trans-1-Methylidene-2-(2'-hydroxy-4'-bromo-5'-methoxyphenyl)methyl-3,3,4-trimethylcyclohexane]	74	500	91	1600	269
C=C1C=C[C@@H](C)C(C)(C)[C@@H]1Cc1cc(OC)c(Br)cc1OC(C)=O (relative stereo) [N, trans-1-Methylidene-6-(2'-acetoxy-4'-bromo-5'-methoxyphenyl)methyl-4,5,5-trimethylcyclohex-2-ene]	70	325	90	1000	195
C=C1CCCC(C)(C)C1Cc1cc(OC)c(Br)cc1O (stereo in doubt) [G, (3S)-1-Debromocyclocymopol monomethyl ether]	50	–	45	–	–
C=C1C(C)=CCC(C)(C)C1Cc1cc(OC)c(Br)cc1OC(C)=O (stereo in doubt) [Z, (3R)-5-Methyl-5,6-dehydro-1-debromocyclocymopol monomethyl ether, acetate]	81	210	83	660	–
C=C1CCCC(C)(C)C1Cc1cc(OC)c(Br)cc1O (stereo not drawn) [C, 1-Methylidene-2-(2'-hydroxy-4'-bromo-5'-methoxy-phenyl)methyl-3.3-dimethylcyclohexane]	70	–	55	–	–
C=C1C=C(C)CC(C)(C)C1Cc1ccc2nonc2c1 (stereo not drawn) [FF, 1-Methylidene-6-(benzofurazan-5'-yl)methyl-3,5,5-trimethylcyclohex-2-ene]	71	775	72	1950	–
C=C1C=C(C)CC(C)(C)C1C/C=C/c1cc(OC)c(Br)cc1O (stereo not drawn) [GG, 1-Methylidene-6-[trans-(2'-Hydroxy-4'-bromo-5'-methoxyphenyl)-1-propenyl]-3,5,5-trimethylcyclohex-2-ene]	65	1600	61	3300	–
C=C1C=C(C)CC(C)(C)C1Cc1cc(OC)c(Br)cc1O (stereo not drawn) [II, 1-Methylidene-6-(2'-hydroxy-4'-bromo-5'-methoxyphenyl)methyl-3,5,5-trimethylcyclohex-2-ene]	–	–	–	3570	–
C=C1C=CCC(C)(C)C1Cc1cc(OC)c(Br)cc1O (stereo not drawn) [K, 1-Methylidene-6-(2'-hydroxy-4'-bromo-5'-methoxyphenyl)methyl-5,5-dimethylcyclohex-2-ene]	70	–	70	–	–

Source: patent US5808139A (Ligand Pharmaceuticals Incorporated, priority 1994, dated 1998)
